{
  "source": "paper PMC4148704",
  "about": "“Agaricus meleagris pyranose dehydrogenase: Influence of covalent FAD linkage on catalysis and stability” (Archives of Biochemistry and Biophysics, 2014)",
  "molecular_target": "T1, AmPDH (Agaricus meleagris pyranose dehydrogenase) (Macropsalliota meleagris, UniProt Q3L245)",
  "T1 construct": "gene pdh1; recombinant from Pichia pastoris X-33, secreted glycoprotein, about 75 kDa, monomer, 577 amino acids, covalent 8alpha-N(3)-histidyl FAD at H103",
  "T1 sequence (Q3L245 26-602)": "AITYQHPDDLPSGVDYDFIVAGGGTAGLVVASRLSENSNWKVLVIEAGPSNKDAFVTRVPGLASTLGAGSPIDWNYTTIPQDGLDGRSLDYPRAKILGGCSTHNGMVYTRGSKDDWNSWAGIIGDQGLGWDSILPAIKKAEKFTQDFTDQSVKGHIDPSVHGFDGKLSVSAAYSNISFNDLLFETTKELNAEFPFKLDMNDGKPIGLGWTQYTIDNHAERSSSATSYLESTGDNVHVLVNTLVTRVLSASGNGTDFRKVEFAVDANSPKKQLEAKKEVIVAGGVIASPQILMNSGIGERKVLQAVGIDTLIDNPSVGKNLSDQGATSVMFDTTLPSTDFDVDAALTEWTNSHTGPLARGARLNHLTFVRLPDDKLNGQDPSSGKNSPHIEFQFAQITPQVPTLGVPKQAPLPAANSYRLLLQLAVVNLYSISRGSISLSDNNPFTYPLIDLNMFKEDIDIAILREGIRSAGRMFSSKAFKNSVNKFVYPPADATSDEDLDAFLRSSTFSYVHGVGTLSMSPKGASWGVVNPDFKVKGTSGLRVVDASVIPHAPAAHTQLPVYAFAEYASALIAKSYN",
  "assay": "stopped-flow reductive half-reaction, […] nm",
  "format": "biochemical",
  "conditions": "pH 7.5, 65 mM sodium phosphate, 30 °C; 0.1-5 mM D-glucose; only a bimolecular rate constant",
  "data": [
    {"smiles": "OC[C@H]1OC(O)[C@H](O)[C@@H](O)[C@@H]1O", "note": "(stereo partly drawn) [D-glucose]", "values": [
      {"measurement": "kapp", "result": "spectral changes of wild-type AmPDH upon addition of D-glucose"}
    ]}
  ]
}
